Measured values as given in article PMC8482776 (ACS Omega, 2021).
≈ marks a conversion by molar mass, not a printed value. Where “and” joins values, the source holds several entries; their conditions need not be identical. Identical values can stand only once.

Key:
[1] = test system: human red blood cells (hRBCs); test: Hemolysis assay; assay type: cell-based; details: 100 μg/mL, 2 h at 37 °C
[2] = test system: Asp. nidulans (PTCC 5014); test: Microdilution MIC90, strain F; assay type: cell-based, Aspergillus nidulans; details: Aspergillus nidulans, PTCC5014, 48 h, filamentous fungi, 48 h at 37 °C, triplicate
[3] = test system: FLC-resistant clinical Candida isolates (R1–R7); test: PMIC, seven FLC-resistant clinical Candida isolates; assay type: cell-based; details: read-out: MIC (growth inhibition concentrations)
[4] = test system: FLC-resistant clinical Candida isolate R3 (C. albicans); test: PMIC90, FLC-resistant isolate R3; assay type: cell-based; details: strain R3, planktonic
[5] = test system: C. glabrata (ATCC 90030); test: Microdilution MIC90, strain C; assay type: cell-based; details: yeast, 24 h at 37 °C, triplicate
[6] = test system: FLC-resistant clinical C. albicans isolate (R2) biofilm; test: Antibiofilm MTT reduction assay, strain R2; assay type: cell-based; details: triplicate
[7] = test system: C. albicans (ATCC 10231); test: Membrane permeabilization assay; assay type: cell-based; details: 8b, 8c at 1 × MIC, 2 × MIC, 4 × MIC (0.5, 1, 2 μg/mL); AMB 1 μg/mL; 3 h at 28 °C
[8] = test system: FLC-resistant clinical Candida isolate R5 (C. albicans); test: PMIC90, FLC-resistant isolate R5; assay type: cell-based; details: strain R5, planktonic
[9] = MTT cytotoxicity assay, A-431; assay type: cell-based, human; details: human, A-431 epidermoid carcinoma cells
[10] = test system: FLC-resistant clinical Candida isolate R6 (C. albicans); test: PMIC90, FLC-resistant isolate R6; assay type: cell-based; details: strain R6, planktonic
[11] = test system: Asp. fumigatus (PTCC 5009); test: Microdilution MIC90, strain H; assay type: cell-based; details: filamentous fungi, 48 h at 37 °C, triplicate
[12] = test system: FLC-resistant clinical Candida isolate R2 (C. albicans); test: PMIC90, FLC-resistant isolate R2; assay type: cell-based; details: strain R2, planktonic
[13] = test system: Microsporum gypseum (PTCC 5070); test: Microdilution MIC90, strain L; assay type: cell-based; details: filamentous fungi, 48 h at 37 °C, triplicate
[14] = test system: FLC-resistant clinical Candida isolate R1 (C. albicans); test: PMIC90, FLC-resistant isolate R1; assay type: cell-based; details: strain R1, planktonic
[15] = test system: C. albicans (ATCC 10231); test: Microdilution MIC90, strain A; assay type: cell-based; details: strain A; for MIC90: 24 h, yeast, 24 h at 37 °C, triplicate
[16] = test system: C. parapsilosis (ATCC 22019); test: Microdilution MIC90, strain D; assay type: cell-based; details: 24 h
[17] = test system: FLC-resistant clinical C. albicans isolate (R1) biofilm; test: Antibiofilm MTT reduction assay, strain R1; assay type: cell-based; details: triplicate
[18] = test system: M. canis (PTCC 5069); test: Microdilution MIC90, strain O; assay type: cell-based; details: Microsporum canis, PTCC5069, 48 h
[19] = test system: Asp. terreus (PTCC 5023); test: Microdilution MIC90, strain J; assay type: cell-based, Aspergillus terreus; details: filamentous fungi, 48 h at 37 °C, triplicate
[20] = test system: C. tropicalis (PTCC 5028); test: Microdilution MIC90, strain E; assay type: cell-based; details: 24 h
[21] = test system: FLC-resistant clinical Candida isolate R7 (C. glabrata); test: PMIC90, FLC-resistant isolate R7; assay type: cell-based; details: strain R7, planktonic
[22] = test system: PANC-1; test: MTT cytotoxicity assay, PANC-1; assay type: cell-based, human; details: PANC-1, at 30 and 60 μg/mL, 48 h
[23] = test system: HDF normal cells; test: MTT cytotoxicity assay, HDF; assay type: cell-based, human; details: HDF normal cell line, up to 100 μg/mL, 48 h
[24] = test system: T. schoenleinii (PTCC 5221); test: Microdilution MIC90, strain N; assay type: cell-based; details: Trichophyton schoenleinii, PTCC5221, 48 h
[25] = test system: T. mentagrophytes (PTCC 5054); test: Microdilution MIC90, strain M; assay type: cell-based; details: Trichophyton mentagrophytes, PTCC5054, 48 h
[26] = test system: C. krusei (ATCC 6258); test: Microdilution MIC90, strain B; assay type: cell-based; details: for MIC90: 24 h, yeast, 24 h at 37 °C, triplicate
[27] = test system: FLC-resistant clinical Candida isolate R4 (C. albicans); test: PMIC90, FLC-resistant isolate R4; assay type: cell-based; details: strain R4, planktonic
[28] = test system: C. albicans (ATCC 10231); test: Murine model of systemic candidiasis; assay type: in vivo; details: neutropenic mice (n = 5), 15 mg/kg oral gavage, left kidney tissue
[29] = test system: T. rubrum (PTCC 5143); test: Microdilution MIC90, strain K; assay type: cell-based, Trichophyton rubrum; details: Trichophyton rubrum, PTCC5143, 48 h, filamentous fungi, 48 h at 37 °C, triplicate
[30] = test system: Asp. flavus (ATCC 204304); test: Microdilution MIC90, strain G; assay type: cell-based, Aspergillus flavus; details: Aspergillus flavus, ATCC204304, 48 h, filamentous fungi, 48 h at 37 °C, triplicate
[31] = test system: C. albicans (ATCC 10231); test: Time-kill assay; assay type: cell-based; details: 24 h period
[32] = test system: Asp. niger (PTCC 5154); test: Microdilution MIC90, strain I; assay type: cell-based, Aspergillus niger; details: filamentous fungi, 48 h at 37 °C, triplicate
[33] = test system: dermatophyte isolates K–O; test: Microdilution MIC, dermatophyte isolates K–O; assay type: cell-based
[34] = Aspergillus fumigatus, PTCC5009, 48 h
[35] = Aspergillus terreus, PTCC5023, 48 h
[36] = Aspergillus niger, PTCC5154, 48 h

COc1ccc(NC(=O)Nc2nnc(SCC(O)(Cn3cncn3)c3ccc(F)cc3F)s2)cc1 (stereo not drawn) [Compound 8b, 1-(5-((2-(2,4-Difluorophenyl)-2-hydroxy-3-(1H-1,2,4-triazol-1-yl)propyl)thio)-1,3,4-thiadiazol-2-yl)-3-(4-methoxyphenyl)urea]
hemolysis (in words) [1]: limited hemolysis | MIC90 [2]: 8 µg/mL (≈ 15.4 µM) | MIC [3]: 0.25 to 2 µg/mL (≈ 0.481 to 3.85 µM) | PMIC90 [4]: 2 µg/mL | MIC90 ([5]; 24 h): 1 to 16 µg/mL (≈ 1.92 to 30.8 µM) | MIC90 [5]: 1 μg·mL^–1 | SMIC90 (sessile minimum inhibitory concentration that reduced the metabolic activity of biofilms by 90%) [6]: 1 µg/mL | cellular uptake of the PI dye [7]: none of our compounds 8b and 8c (at 1 × MIC, 2 × MIC, or 4 × MIC) induced the cellular uptake of the PI dye | PMIC90 [8]: 2 µg/mL | viability at 48 h, 100 μg/mL [9]: < 50% | PMIC90 [10]: 2 µg/mL | MIC90 [11, 34]: 2 to 4 µg/mL (≈ 3.85 to 7.7 µM) | MIC90 [11]: 1 μg·mL^–1 | PMIC90 [12]: 0.5 µg/mL | MIC90 [13]: 4 μg·mL^–1 | PMIC90 [14]: 0.25 µg/mL | MIC90 [15]: 0.5 µg/mL (≈ 0.962 µM) | fold greater potency than that of FLC ([15]; from MIC values): 32 fold | MIC90 [16]: 2 µg/mL (≈ 3.85 µM) | SMIC90 (sessile minimum inhibitory concentration that reduced the metabolic activity of biofilms by 90%) [17]: 0.5 µg/mL | MIC90 [18]: 8 µg/mL (≈ 15.4 µM) | MIC90 [19, 35]: 2 to 4 µg/mL (≈ 3.85 to 7.7 µM) | MIC90 [19]: 4 μg·mL^–1 | MIC90 [20]: 1 µg/mL (≈ 1.92 µM) | PMIC90 [21]: 1 µg/mL | toxicity (in words) [22]: no toxicity | toxicity (in words) [23]: none of the active compounds displayed toxicity | MIC90 [24]: 8 µg/mL (≈ 15.4 µM) | MIC90 [25]: 4 µg/mL (≈ 7.7 µM) | MIC90 [26]: 0.5 µg/mL (≈ 0.962 µM) | fold greater potency than that of FLC ([26]; from MIC values): 32 fold | PMIC90 [27]: 1 µg/mL | kidney fungal burden, CFU/g (mean ± SD) [28]: 414 CFU/g and 414 ± 67.7 ^b CFU/g | MIC90 [29]: 2 µg/mL (≈ 3.85 µM) | MIC90 [30]: 8 µg/mL (≈ 15.4 µM) | time-kill effect at 4 × MIC ([31]; at 4 × MIC (2 μg/mL for 8b, 8c; 64 μg/mL for FLC)): fungicidal activity of compound 8b significantly enhanced | time-kill effect at MIC ([31]; at MIC (0.5 μg/mL)): fungicidal effect | MIC90 [32, 36]: 2 to 4 µg/mL (≈ 3.85 to 7.7 µM) | MIC90 [32]: 4 μg·mL^–1

OC(Cn1cncn1)(Cn1cncn1)c1ccc(F)cc1F [FLC, Fluconazole, reference compound]
MIC [3]: ≥ 64 µg/mL | PMIC90 [4]: >64 µg/mL | MIC90 ([5]; 24 h): 16 µg/mL (≈ 52.2 µM) | PMIC90 [8]: >64 µg/mL | PMIC90 [10]: >64 µg/mL | MIC90 [11, 34]: 4 µg/mL (≈ 13.1 µM) | PMIC90 [12]: >64 µg/mL | MIC [33]: 1 to 4 µg/mL (≈ 3.27 to 13.1 µM) | PMIC90 [14]: >64 µg/mL | MIC90 [15]: 16 µg/mL (≈ 52.2 µM) | MIC90 [16]: 4 µg/mL (≈ 13.1 µM) | MIC90 [18]: 1 µg/mL (≈ 3.27 µM) | MIC90 [19, 35]: 4 µg/mL (≈ 13.1 µM) | MIC90 [20]: 4 µg/mL (≈ 13.1 µM) | PMIC90 [21]: >64 µg/mL | MIC90 [24]: 2 µg/mL (≈ 6.53 µM) | MIC90 [25]: 4 µg/mL (≈ 13.1 µM) | MIC90 [26]: 16 µg/mL (≈ 52.2 µM) | PMIC90 [27]: >64 µg/mL | kidney fungal burden, CFU/g (mean ± SD) [28]: 512 CFU/g and 512 ± 63.5 ^b CFU/g | MIC90 [29]: 1 µg/mL (≈ 3.27 µM) | MIC90 [30]: 2 µg/mL (≈ 6.53 µM) | time-kill effect at 4 × MIC ([31]; […]; 64 μg/mL for FLC)): no significant effect | MIC90 [32, 36]: 4 µg/mL (≈ 13.1 µM)
